Source: patent US20230233704A1, “HYDROGEL COMPOSITION AND ASSOCIATED METHOD OF USE” (Quthero, Inc., priority 2017, published 2023)

Key:
[1] = test system: Primary neonatal human epithelial keratinocytes (HEKs); test: BrdU proliferation assay of HEKs with soluble QHREDGS peptide; format: cell-based; details: soluble peptide Low 100 μM, High 650 μM; 8 h BrdU
Method: (§1) The effect of the QHREDGS peptide as in the soluble form was assessed on HEKs in vitro. 24- or 96-well plates were coated with 0.05 mg/mL type I collagen (BD Biosciences) in 0.02 N acetic acid overnight and then rinsed once with phosphate buffered saline (PBS) (Lonza). HEKs were seeded in complete EpiLife medium and attached for at least 2 h. 100 μM or 650 μM QHREDGS was supplemented to the EpiLife medium as Low or High dosage, respectively.
HEKs were seeded at a density of 1×10^4 cells/cm^2 in collagen-coated 96-well plates. After 4 h, media was removed and replenished with EpiLife media supplemented with 20 μM bromodeoxyuridine (BrdU) (Sigma Aldrich) in the presence or absence of QHREDGS peptide. After incubating for 8 h, proliferating HEKs were identified by BrdU staining. Briefly, HEKs were fixed with 4% paraformaldehyde (PFA), permeablized with 0.25% triton X, treated with DNase for 30 min at 37° C., and blocked with 5% bovine serum albumin (BSA). The HEKs were then incubated with a rat anti-BrdU antibody (AbD Serotec) overnight at 4° C. followed by an anti-rat TRITC-labelled secondary antibody (Jackson Immuno Research). BrdU-positive cells were counted in 5 randomly chosen fields under 20× magnification and then normalized to the total number of cells labelled by 4′,6-diamidino-2-phenylindole (DAPI) counterstaining.

HEKs [2] = test: HEK migration on collagen coated surfaces with soluble QHREDGS peptide; format: cell-based, human; details: soluble peptide 100 μM or 650 μM; collagen-coated surface; 24 h
Method: as §1
Culture-inserts were purchased from Ibidi® and carefully placed on the chitosan-collagen films in 24-wells. HEKs were seeded in complete EpiLife medium at 0.3-0.4×10^6 cells/mL with 70-100 μL per chamber and allowed to attach for 2 h. The culture-inserts were then carefully lifted and the unattached HEKs were immediately removed by rinsing twice using warm PBS. Basal EpiLife medium was then added to the wells and the wells were imaged every 2 h for 8 h and the next day using the SpectraMax i3 plate reader. Confluent HEK monolayers were wounded (time 0) and maintained for 24 h in EpiLife basal medium with 0.12 mM Ca2+. The wounds were outlined and the area at the various time points was normalized to the initial wound size (time 0). After 24 h, HEKs were fixed with 4% paraformaldehyde.

HEKs [3] = test: EarlyTox Cell Integrity assay after H2O2 treatment of HEKs with soluble QHREDGS peptide; format: cell-based, human; details: 500 μM H2O2 for 2 h; soluble peptide 100 μM / 650 μM, 2 h pre-conditioning
Method: (§2) HEKs were seeded at a sub-confluent density in a 96-well plate for the cell integrity assay or a 24-well plate for Western blot analysis, and serum starved overnight. The HEKs were then pretreated with soluble QHREDGS (100 μM for Low and 650 μM for High) for 2 h. The cells were then exposed to fresh EpiLife basal medium supplemented with 500 μM H2O2 in the presence or absence of QHREDGS peptide. For the cell integrity assay, the cells were stained using the EarlyTox™ Cell Integrity kit (Molecular Devices) after 2 h of H2O2 treatment. For the Western analysis, another set of wells were seeded in parallel for the Ctrl, Low and High conditions and protein samples were collected after 0, 15 min and 2 h of H2O2 treatment.
The EarlyTox™ Cell Integrity Kit (Molecular Devices, R8213) is based on two nuclear dyes: live red dye is cell permeant and marks both live and dead cells (Excitation: 622 nm/Emission: 645 nm); dead green dye is cell impermeant and stains only cells with damaged outer membranes (Excitation: 503 nm/Emission: 526 nm). […] The plate was then incubated at 37° C. for 30 min and imaged using a SpectraMax i3 plate reader (Molecular Devices). The percentage of viable cells after H2O2 treatment on chitosan-collagen films in the presence or absence of QHREDGS peptide was normalized to the viability percentage of non-treated controls on the same coating film condition.

[4] = test system: Akt and MAPKp42/44 phosphorylation; test: Western blotting of HEKs under H2O2 stress with soluble QHREDGS peptide; format: cell-based, human; details: 500 μM H2O2, 15 min, soluble peptide 100 μM / 650 μM
Method: as §2
Protein was isolated from keratinocytes in the 24-well plate after H2O2 treatment using 60-80 μL Lysis Buffer per well (10× Cell Lysis Buffer, Cell Signaling Technology; complete Mini, EDTA-free protease inhibitor cocktail tablet, Roche; in ddH2O). Proteins were separated by electrophoresis in Novex Tris-Glycine gels (Life technologies) and transferred using the iBlot (Life technologies) to a PVDF iBlot Transfer Stack (Life technologies). Membranes were probed for phospho-p44/42 MAPK (pMAPKp42/44), p44/42 MAPK (MAPKp42/44), phospho-Akt, Akt, or GAPDH as a loading control (Millipore). All primary antibodies were purchased from Cell Signaling unless stated otherwise. […]

QHREDGS [QHREDGS peptide]
percentage of proliferating HEKs (BrdU incorporation) [1]: not affected
HEK migration rate (HEKs [2]): No significant difference
percentage of viable HEKs under oxidative stress (HEKs [3]): significant dose-dependent increase
phosphorylation of Akt and MAPKp42/44 [4]: increased the phosphorylation of Akt and MAPKp42/44 and the increase was dose-dependent
